The values that follow come from publication PMC4805204, “Robust Stimulation of W1282X-CFTR Channel Activity by a Combination of Allosteric Modulators” (PLoS ONE, 2016).

The assay addresses T1, Δ1198-CFTR (Homo sapiens, UniProt P13569).
T1 construct: NBD2 deletion construct; V1198 replaced with a termination codon
In words: inside-out macropatch clamp of HEK-293T cells, […] curcumin, order of addition with VX-770. The assay is classed as cell-based.

T1 sequence (P13569 1-1197, stated change not applied): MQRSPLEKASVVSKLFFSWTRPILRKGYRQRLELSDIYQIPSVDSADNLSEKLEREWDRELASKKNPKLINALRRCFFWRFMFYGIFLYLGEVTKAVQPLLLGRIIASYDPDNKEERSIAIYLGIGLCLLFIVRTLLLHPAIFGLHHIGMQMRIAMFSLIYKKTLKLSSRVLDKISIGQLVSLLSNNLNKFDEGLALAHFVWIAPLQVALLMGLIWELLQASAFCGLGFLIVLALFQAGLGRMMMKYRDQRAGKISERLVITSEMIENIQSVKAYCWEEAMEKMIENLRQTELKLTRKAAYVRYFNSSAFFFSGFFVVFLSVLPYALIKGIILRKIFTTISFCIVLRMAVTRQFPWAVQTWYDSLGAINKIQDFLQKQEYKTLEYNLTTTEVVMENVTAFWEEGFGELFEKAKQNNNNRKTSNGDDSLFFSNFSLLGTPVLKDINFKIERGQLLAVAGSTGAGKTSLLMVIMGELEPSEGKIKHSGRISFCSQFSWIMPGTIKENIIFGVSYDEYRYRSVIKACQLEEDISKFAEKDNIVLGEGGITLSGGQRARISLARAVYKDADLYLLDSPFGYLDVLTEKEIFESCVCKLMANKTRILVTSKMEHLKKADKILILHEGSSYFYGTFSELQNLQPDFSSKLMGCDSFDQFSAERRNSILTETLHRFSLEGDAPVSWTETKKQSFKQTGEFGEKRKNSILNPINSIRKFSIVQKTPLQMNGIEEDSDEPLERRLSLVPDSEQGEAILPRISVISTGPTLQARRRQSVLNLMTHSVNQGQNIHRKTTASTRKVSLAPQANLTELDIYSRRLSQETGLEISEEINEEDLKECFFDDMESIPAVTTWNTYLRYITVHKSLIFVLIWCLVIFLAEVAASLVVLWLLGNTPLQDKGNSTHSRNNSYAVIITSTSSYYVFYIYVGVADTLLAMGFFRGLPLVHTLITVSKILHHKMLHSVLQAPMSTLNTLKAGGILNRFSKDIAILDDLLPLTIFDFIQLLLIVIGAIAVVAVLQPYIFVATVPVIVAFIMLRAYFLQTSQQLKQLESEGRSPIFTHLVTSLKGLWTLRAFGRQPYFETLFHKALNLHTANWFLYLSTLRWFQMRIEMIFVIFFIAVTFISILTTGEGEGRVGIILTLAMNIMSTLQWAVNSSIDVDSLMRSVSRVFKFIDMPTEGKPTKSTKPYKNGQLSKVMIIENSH

With `COc1cc(/C=C/C(=O)CC(=O)/C=C/c2ccc(O)c(OC)c2)ccc1O` [curcumin], the “inside-out macropatch clamp of HEK-293T cells, 30 uM curcumin, order of addition” value was “Mean percent stimulation of W1282X-CFTR or Δ1198-CFTR current by each compound alone”.
